The record followed here is US20200148682A1, “AKT ISOZYME-SPECIFIC COVALENT INHIBITORS DERIVED FROM REDOX-SIGNALING LIPIDS” (Cornell University, priority 2017, published 2020).

Holding throughout (format): cell-based
The subject of experiment [1] is MDA-MB-468. The experiment can be described thus: Cell viability assay (AlamarBlue). Conditions: MDA-MB-468, 72 hours. Here is the method: (§1) FIGS. 22A and 22D are graphs showing results of cytotoxicity assays for MDA-MB-468 (FIG. 22A) and BT-549 (FIG. 22D). […] Stated cell lines were plated in 96-well plates (3000 cells per well) in the presence of the stated concentration of inhibitor. After 72 hours, the number of viable cells was analyzed by AlamarBlue®. Proliferation inhibition 50% (PI50) values were calculated by fitting data to “PI50 equation” (EQN 4) (FIG. 22C). MDA cells were transfected with the stated siRNA using lipofectamine 3000 for 12 hours. […] After 72 hours, the number of viable cells was calculated using AlamarBlue®. FIG. 22F is a schematic showing AlamarBlue® viability assay. […] MDA-MB-468 cells were treated with the stated drugs for 72 hours at the PI60 and PI80. After this time, cells were harvested, fixed/permeabilized with ethanol and DNA content was stained using propidium iodide (visualized in the 488-3 channel). RNA was removed simultaneously using RNAse. After 30 min at room temperature, cells were analyzed by flow cytometry.
(§2) Indicated cells were plated in a 96-well plate containing the DMEM complete medium (see Example 11 for complete medium formulation, 100 μL per well) with a density of 3,000-5,000 cells per well for 12 hours followed by the addition of varying concentrations of inhibitors in rinse medium (100 μL). The cells were allowed to grow for 72 hours and 100 μL of the culture medium was removed from each well. This was followed by the addition of 10 μL AlamarBlue® reagent to each well. The fluorescence emission signals at 590 nm were read by Cytation 3 cell imaging multi-mode reader (BioTeK) using an excitation wavelength of 560 nm. Curve fitting and data analysis were performed using Prism software.
(Resazurin is reduced to fluorescent resorufin, in cell work by metabolically active cells.)

Experiment [2] concerns BT-549. The experiment can be described thus: Cell viability assay (AlamarBlue). The following applies: BT-549, 72 hours. Here is the method:
as §1, §2

For experiment [3], the target named is T1, Akt2 (pT309) (Homo sapiens, UniProt P31751).
T1 construct: expressed in transfected cells; host or cells: HEK293T
T1 sequence (P31751 whole entry): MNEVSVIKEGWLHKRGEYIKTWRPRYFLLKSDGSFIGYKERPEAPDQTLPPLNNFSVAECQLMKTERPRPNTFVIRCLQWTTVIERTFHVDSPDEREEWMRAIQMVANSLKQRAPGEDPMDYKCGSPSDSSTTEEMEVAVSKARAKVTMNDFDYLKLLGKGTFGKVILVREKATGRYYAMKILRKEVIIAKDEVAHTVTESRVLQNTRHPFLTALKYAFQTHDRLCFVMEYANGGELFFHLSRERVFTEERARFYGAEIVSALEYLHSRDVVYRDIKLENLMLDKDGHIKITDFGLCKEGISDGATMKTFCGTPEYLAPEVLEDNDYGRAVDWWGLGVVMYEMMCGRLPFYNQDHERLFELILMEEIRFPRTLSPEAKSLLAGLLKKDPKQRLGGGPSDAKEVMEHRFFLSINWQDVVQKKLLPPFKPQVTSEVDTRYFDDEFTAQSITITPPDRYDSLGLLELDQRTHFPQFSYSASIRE
Briefly: Western blot and ratiometric ELISA of Akt phosphorylation in HEK293T cells. The following applies: 5 μM, 48 hours.

The structures appear in SMILES notation.

As to `C#CCCCC(F)/C=C/C(=O)NC1(c2ccc(-c3nc4ccn5c(=O)[nH]nc5c4cc3-c3ccccc3)cc2)CCC1.Cl` (stereo not drawn) [MK-FNE, (E)-8-(4-(1-(4-Fluoronon-2-en-8-ynamido)cyclobutyl)phenyl)-3-oxo-9-phenyl-2,3-dihydro-[1,2,4]triazolo[3,4-f][1,6]naphthyridin-7-ium Chloride], the “toxicity / potency relative to MK-2206” value in experiment [1] and in experiment [2] was “similarly potent to MK-2206” in each case.
As to `C#CCCCC(O)/C=C/C(=O)NC1(c2ccc(-c3nc4ccn5c(=O)[nH]nc5c4cc3-c3ccccc3)cc2)CCC1.Cl` (stereo not drawn) [MK-HNE, (E)-8-(4-(1-(4-Hydroxynon-2-en-8-ynamido)cyclobutyl)phenyl)-3-oxo-9-phenyl-2,3-dihydro-[1,2,4]triazolo[3,4-f][1,6]naphthyridin-7-ium Chloride], the “phosphorylation level of Akt2” value in experiment [3] was “did not affect phosphorylation levels”.
